{"source": "patent US20230212222A1", "about": "(ANYGEN CO., LTD., priority 2020, published 2023)", "key": {"db/db mice": {"tested_on": "db/db mice", "test": "drop in blood glucose level in mouse model of diabetes mellitus disease", "assay_type": "in vivo", "protocol": "The drop in blood glucose level in a mouse model of diabetes mellitus disease according to the HKFY derivative treatment was analyzed (FIG. 92).\nSpecifically, HKFY-34 was subcutaneously administered at a concentration of 0.5, 1, 5 and 10 mg/kg, respectively, to male db/db mice (5 to 7-week-old), which is a mouse model of diabetes mellitus disease. After 0, 1, 2, 4, 6, 8, 12, 18 and 24 hours, blood was collected from the tail of the mice, and the blood glucose was measured with a blood glucose meter (acc-check, Roche, Germany) to confirm the anti-diabetic effect."}, "[1]": {"tested_on": "C57BL6/J mice with high-fat feed (DIO)", "test": "insulin level in mouse model of obesity disease (DIO)", "assay_type": "in vivo", "details": "FIG. 90", "protocol": "(§1) In addition, the glucose tolerance level and insulin level according to HKFY-34 treatment in a mouse model of obesity disease were analyzed (FIGS. 89 and 90).\n(§2) Specifically, in the glucose tolerance level and insulin level analysis experiment, the experiment was performed by changing the mouse model of diabetes mellitus disease into a mouse model of obesity disease (DIO), in which obesity was induced by providing male C57BL6/J mice (6 to 7-week-old, Central Lab. Animal Inc.) with a high-fat feed (60% fat chow) for 5-6 weeks."}, "[2]": {"tested_on": "C57BL6/J mice with high-fat feed (DIO)", "test": "glucose tolerance test in mouse model of obesity disease (DIO)", "assay_type": "in vivo", "details": "FIG. 89", "protocol": "as §1, §2"}, "[3]": {"tested_on": "pERK and pPKA in WAT cells", "test": "pERK and pPKA expression by western blot in WAT", "assay_type": "cell-based, mice", "details": "FIG. 86", "protocol": "In order to analyze the mechanism of lipolytic ability according to the HKFY derivative treatment in 3T3-L1 cells and WAT cells, the expression levels of pERK and pPKA were analyzed (FIGS. 85 and 86).\nSpecifically, protein was purified from 3T3L-1 cells (Korea Cell Line Bank) and WAT (tissue culture using mice purchased from Central Lab. Animal Inc.) treated with the HKFY derivatives, and then each antibody for pERK, ERK, pPKA, and PKA expressed in mice was used, and the expression level of each protein due to the derivatives was measured through western blot."}, "rat islet": {"tested_on": "rat islet", "test": "glucose-dependent insulin secretion in isolated rat islets (rat insulin ELISA)", "assay_type": "cell-based", "details": "1 nM to 100 μM, 2.8 mM or 28 mM glucose", "protocol": "In addition, the glucose-dependent insulin secretion ability of the HKFY derivative for rat islet was confirmed (FIG. 76).\nSpecifically, the pancreas was extracted from a 8-week-old SD rat (Damul Science), and islets were isolated. The isolated islets were treated with HKFY-34 at different concentrations (1 nM, 10 nM, 100 nM, 1 μM, 10 μM and 100 μM) in 2.8 mM or 28 mM glucose, and then the amount of the secreted insulin was measured using a rat insulin ELISA."}, "[4]": {"tested_on": "INS-1, a rat insulinoma cell", "test": "glucose-dependent insulin secretion ability test in INS-1 (rat insulin ELISA)", "assay_type": "cell-based", "protocol": "In this regard, in order to confirm the effect of the HKFY derivative, a candidate GPR39 agonist, on insulin secretion ability, a glucose-dependent insulin secretion ability test was performed in INS-1 (Korea Cell Line Bank), a rat insulinoma cell (FIG. 75).\nSpecifically, when INS-1 cells were treated with 1 or 10 μM of HKFY-34 in 2.8 mM glucose similar to a physiological blood glucose level or 11.1 mM glucose, a high blood glucose level, the insulin secretion ability was confirmed using a rat insulin ELISA.\nIn addition, through GPR39 knock-down experiment using GPR39 siRNA, it was confirmed that HKFY-34 enhances insulin secretion through the GPR39 receptor."}, "GPR39 KO mice": {"tested_on": "GPR39 KO mice", "test": "glucose tolerance test in GPR39 KO mouse model induced by a high-fat diet", "assay_type": "in vivo", "details": "16, 17 and 18-week-old GPR39 KO mice, high-fat feed, 0.5, 1, 5 and 10 mg/kg subcutaneously", "protocol": "In addition, the glucose tolerance level in the GPR39 KO mouse model induced by a high-fat diet according to the HKFY derivative treatment was analyzed (FIG. 91).\nSpecifically, obesity was induced by providing male GPR39 KO mice (6 to 7-week-old, Central Lab. Animal Inc.) with a high-fat feed (60% fat chow) for 5-6 weeks. HKFY-34 was administered subcutaneously at a concentration of 0.5, 1, 5 and 10 mg/kg, respectively, to the 16, 17 or 18-week-old GPR39 KO mice, in which obesity was induced. After 30 minutes, glucose (1.5 g/kg) was intraperitoneally administered. After 0, 15, 30, 45, 60, 90, 120 and 180 minutes, blood was collected from the tail of the mice, and the blood glucose was measured with a blood glucose meter (acc-check, Roche, Germany) to analyze the glucose tolerance."}, "GPR39": {"molecular_target": "T1, GPR39 (Homo sapiens, UniProt O43194)", "T1 sequence (O43194 1-453)": "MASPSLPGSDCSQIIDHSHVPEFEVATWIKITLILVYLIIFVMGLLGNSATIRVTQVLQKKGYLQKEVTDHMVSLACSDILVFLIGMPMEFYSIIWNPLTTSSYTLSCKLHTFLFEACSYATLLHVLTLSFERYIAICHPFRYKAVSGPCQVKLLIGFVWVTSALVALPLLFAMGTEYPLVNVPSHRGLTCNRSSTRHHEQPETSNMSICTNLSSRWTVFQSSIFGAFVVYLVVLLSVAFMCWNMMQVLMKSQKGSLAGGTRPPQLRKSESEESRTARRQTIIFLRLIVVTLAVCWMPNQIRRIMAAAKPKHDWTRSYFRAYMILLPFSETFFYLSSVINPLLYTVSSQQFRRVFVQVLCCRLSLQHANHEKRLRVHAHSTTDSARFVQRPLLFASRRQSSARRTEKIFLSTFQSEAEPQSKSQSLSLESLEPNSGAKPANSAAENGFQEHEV", "test": "luciferase assay system (SRE luciferase reporter gene) for GPR39 in CV-1 cells", "description": "Specifically, the fibroblast cell line CV-1 (1×10^5 cells/ml, Korea Cell Line Bank) was cultured in a 96 well cell culture plate for 24 hours, and then treated with GPR39 inserted into adenovirus and SRE (serum response element) luciferase at 50 MOI (multiplicity of infection) and 25 MOI virus for 3 hours, respectively, and then cultured for 24 hours."}, "[5]": {"tested_on": "HSL, ATGL and Perilipin A in WAT cells", "test": "mRNA expression of lipolysis signaling factors by RT-PCR in WAT", "assay_type": "cell-based, mice", "details": "versus isoproterenol positive control", "protocol": "In addition, the mRNA expression levels of HSL (hormone-sensitive lipase), ATGL (adipose triglyceride lipase) and Perilipin A, which are important factors for lipolysis signaling according to HKFY-34 treatment, were analyzed through RT-PCR (FIG. 79). […] In addition, it was confirmed that the mRNA expression of all factors was enhanced due to GPR39 through GPR39 siRNA (FIGS. 81 to 83)."}}}
{"smiles": "CCCCCCCC(=O)NCCCC[C@H](NC(=O)[C@@H](N)Cc1cn(C(c2ccccc2)c2ccccc2)cn1)C(=O)N[C@H](Cc1ccc(C)cc1)C(=O)N[C@@H](Cc1ccc(O)cc1)C(=O)O", "note": "[HKFY-34, ((R)-2-((S)-2-((S)-2-amino-3-(1-benzhydryl-1H-imidazol-4-yl)propanamido)-6-octanamidohexanamido)-3-(p-tolyl)propanoyl)-L-tyrosine]", "values": [{"measurement": "effect of drop in blood glucose level", "setting": "db/db mice; db/db mice, 0.5, 1, 5 and 10 mg/kg subcutaneously, 0 to 24 hours", "value": "exhibited in a concentration-dependent manner"}, {"measurement": "effect of drop in blood glucose", "setting": "db/db mice; db/db mice, 5 and 10 mg/kg", "value": "significantly increased"}, {"measurement": "insulin secretion level", "setting": "[1]", "value": "increased"}, {"measurement": "glucose tolerance", "setting": "[2]", "value": "glucose tolerance in a concentration dependent manner"}, {"measurement": "expression of pERK compared to ERK", "setting": "[3]", "value": "increased"}, {"measurement": "expression of pPKA compared to PKA", "setting": "[3]", "value": "increased"}, {"measurement": "insulin secretion ability", "setting": "rat islet", "value": "concentration dependent (dose-dependent) manner"}, {"measurement": "insulin secretion", "setting": "[4]; INS-1, high blood glucose level (11.1 mM glucose), 1 or 10 μM", "value": "enhanced at all treatment concentrations"}, {"measurement": "change in insulin secretion level", "setting": "[4]; INS-1, low blood glucose level (2.8 mM glucose), 1 or 10 μM", "value": "insignificant"}, {"measurement": "insulin secretion ability", "setting": "[4]; cells treated with GPR39 siRNA compared to scrambled siRNA, 11.1 mM glucose", "value": "not increased"}, {"measurement": "glucose tolerance", "setting": "GPR39 KO mice", "value": "significant glucose tolerance was not observed"}, {"measurement": "EC50", "setting": "GPR39; EC50, CV-1 cells, GPR39 and SRE luciferase adenovirus, treated 6 hours, luminometer", "value": "7 ± 1", "unit": "nM"}, {"measurement": "binding capacity and activity to the GPR39 receptor (in words)", "setting": "GPR39; FIG. 73 and Table 4, luciferase and calcium influx assay", "value": "excellent"}, {"measurement": "EC50", "setting": "GPR39; Reporter gene assay EC50, Table 4, luciferase assay system", "value": "6.7 ± 0.7", "unit": "nM"}, {"measurement": "ECmax value (in words)", "setting": "GPR39; comment on Table 3", "value": "high ECmax value"}, {"measurement": "activity level for GPR39 (in words)", "setting": "GPR39; comment on Table 3", "value": "higher activity level than other HJKFY derivatives"}, {"measurement": "activity level for GPR39 (in words)", "setting": "GPR39; comment on Table 3, listed as HIKFY-34", "value": "most excellent activity"}, {"measurement": "mRNA expression of ATGL", "setting": "[5]", "value": "increased to a degree similar to that of isoproterenol"}, {"measurement": "mRNA expression of HSL", "setting": "[5]", "value": "increased to a degree similar to that of isoproterenol"}, {"measurement": "mRNA expression of Perilipin A", "setting": "[5]", "value": "increased to a degree similar to that of isoproterenol"}]}
